Assay results taken from ChEMBL document CHEMBL3217569, “N-(5-substituted thiazol-2-yl)-2-aryl-3-(tetrahydro-2H-pyran-4-yl) propanamides as glucokinase activators” (Medchemcomm, 2011).

Molecular target: T1, Hexokinase-4 (Homo sapiens, UniProt P35557)
T1 sequence (P35557 whole entry): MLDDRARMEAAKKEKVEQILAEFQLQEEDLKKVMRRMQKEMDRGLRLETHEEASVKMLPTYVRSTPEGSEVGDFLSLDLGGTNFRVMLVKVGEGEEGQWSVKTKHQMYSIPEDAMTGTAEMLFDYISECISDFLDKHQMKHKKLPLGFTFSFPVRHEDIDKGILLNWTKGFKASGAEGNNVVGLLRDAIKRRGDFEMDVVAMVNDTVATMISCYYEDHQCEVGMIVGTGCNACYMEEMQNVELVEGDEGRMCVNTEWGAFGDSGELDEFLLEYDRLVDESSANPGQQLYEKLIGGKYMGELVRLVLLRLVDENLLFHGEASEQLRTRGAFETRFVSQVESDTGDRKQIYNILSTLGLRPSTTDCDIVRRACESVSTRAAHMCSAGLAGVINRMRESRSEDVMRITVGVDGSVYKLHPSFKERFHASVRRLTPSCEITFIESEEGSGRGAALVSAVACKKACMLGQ
Experiment: Activation of recombinant human His6-tagged glucokinase by G6PDH-coupled spectrophotometry

SMILES | EC50 [nM]
O=C(Nc1ncc(-c2cn(CCOCc3ccccc3)nn2)s1)C(CC1CCOCC1)c1ccc(S(=O)(=O)C2CC2)cc1 (racemic) | 290
O=C(Cn1cc(-c2cnc(NC(=O)C(CC3CCOCC3)c3ccc(S(=O)(=O)C4CC4)cc3)s2)nn1)NC1CC1 (racemic) | > 20000
COC(=O)CCNC(=O)c1cnc(NC(=O)C(CC2CCOCC2)c2ccc(S(=O)(=O)C3CC3)cc2)s1 (racemic) | 520
CNC(=O)Cn1cc(-c2cnc(NC(=O)C(CC3CCOCC3)c3ccc(S(=O)(=O)C4CC4)cc3)s2)nn1 (racemic) | 170
CC(C)[C@H](NC(=O)c1cnc(NC(=O)C(CC2CCOCC2)c2ccc(S(=O)(=O)C3CC3)cc2)s1)C(=O)O (mixture of isomers) | 11300
CN(C)C(=O)Cn1cc(-c2cnc(NC(=O)C(CC3CCOCC3)c3ccc(S(=O)(=O)C4CC4)cc3)s2)nn1 (racemic) | 300
CCOC(=O)CCCn1cc(-c2cnc(NC(=O)C(CC3CCOCC3)c3ccc(S(=O)(=O)C4CC4)cc3)s2)nn1 (racemic) | 450
O=C(Nc1ncc(-c2cn(CCO)nn2)s1)C(CC1CCOCC1)c1ccc(S(=O)(=O)C2CC2)cc1 (racemic) | 180
O=C(Nc1ncc(-c2cn(CCO)nn2)s1)[C@H](CC1CCOCC1)c1ccc(S(=O)(=O)C2CC2)cc1 | 220

Continued, values first:

EC50 [nM] | SMILES
1800 | O=C(O)CCNC(=O)c1cnc(NC(=O)C(CC2CCOCC2)c2ccc(S(=O)(=O)C3CC3)cc2)s1 (racemic)
1520 | COC(=O)[C@H](CC(C)C)NC(=O)c1cnc(NC(=O)C(CC2CCOCC2)c2ccc(S(=O)(=O)C3CC3)cc2)s1 (mixture of isomers)
> 20000 | CCNC(=O)Cn1cc(-c2cnc(NC(=O)C(CC3CCOCC3)c3ccc(S(=O)(=O)C4CC4)cc3)s2)nn1 (racemic)
330 | CCOC(=O)Cn1cc(-c2cnc(NC(=O)C(CC3CCOCC3)c3ccc(S(=O)(=O)C4CC4)cc3)s2)nn1 (racemic)
640 | O=C(Nc1ncc(-c2cn(CC(=O)N3CCOCC3)nn2)s1)C(CC1CCOCC1)c1ccc(S(=O)(=O)C2CC2)cc1 (racemic)
1350 | O=C(O)CCn1cc(-c2cnc(NC(=O)C(CC3CCOCC3)c3ccc(S(=O)(=O)C4CC4)cc3)s2)nn1 (racemic)
> 20000 | CC(C)C[C@H](NC(=O)c1cnc(NC(=O)C(CC2CCOCC2)c2ccc(S(=O)(=O)C3CC3)cc2)s1)C(=O)O (mixture of isomers)
210 | CCN(CC)C(=O)Cn1cc(-c2cnc(NC(=O)C(CC3CCOCC3)c3ccc(S(=O)(=O)C4CC4)cc3)s2)nn1 (racemic)
790 | CN1CCN(C(=O)Cn2cc(-c3cnc(NC(=O)C(CC4CCOCC4)c4ccc(S(=O)(=O)C5CC5)cc4)s3)nn2)CC1 (racemic)
350 | CCOC(=O)CCn1cc(-c2cnc(NC(=O)C(CC3CCOCC3)c3ccc(S(=O)(=O)C4CC4)cc3)s2)nn1 (racemic)
1440 | COC(=O)[C@@H](NC(=O)c1cnc(NC(=O)C(CC2CCOCC2)c2ccc(S(=O)(=O)C3CC3)cc2)s1)C(C)C (mixture of isomers)
